Data as given in patent US7220784B2, “Substituted stilbenes and their reactions” (priority 2000, dated 2007).
pIC50: −log10 of the molar value. Like-named read-outs stand apart in the source and are kept apart here.

How the values were obtained:
K562 = experiment: IC50 of aliquots after ex situ irradiation in a photochemical reactor; conditions: Homo sapiens, K562, light or radiation study, read-out: IC50 (K562) (nM)
[1] = Photoisomerisation of trans-CA-4 ex situ, composition of mixture (GC); assay type: physicochemical
HUVEC = experiment: Growth inhibition studies using HUVEC; assay type: cell-based, human
In short: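 MTT cytotoxicity/growth-inhibition assay in human cell lines including A2780, A2780/ADR, H460 and HUVEC.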

[2] = Pharmacokinetic profile in mice; assay type: in vivo; conditions: 200 mg/kg
[3] = GC, benzene, 400 W Hg lamp, 0 mins (Table 3)
[4] = GC, benzene, 400 W Hg lamp, 0.5 mins (Table 3)
[5] = GC, benzene, 400 W Hg lamp, 1.5 mins (Table 3)
[6] = GC, benzene, 400 W Hg lamp, 3.0 mins (Table 3)
[7] = GC, benzene, 400 W Hg lamp, 5.0 mins (Table 3)
[8] = GC, benzene, 400 W Hg lamp, 6.5 mins (Table 3)
[9] = GC, benzene, 400 W Hg lamp, 8.0 mins (Table 3)
[10] = GC, benzene, 400 W Hg lamp, 10.0 mins (Table 3)
[11] = GC, benzene, 400 W Hg lamp, 12.5 mins (Table 3)
[12] = GC, benzene, 400 W Hg lamp, 15.0 mins (Table 3)
[13] = GC, benzene, 400 W Hg lamp, 17.5 mins (Table 3)
[14] = GC, benzene, 400 W Hg lamp, 20.0 mins (Table 3)
[15] = photoisomerisation ex situ, 0 mins (Table 5)
[16] = photoisomerisation ex situ, 0.5 mins (Table 5)
[17] = photoisomerisation ex situ, 1.0 mins (Table 5)
[18] = photoisomerisation ex situ, 1.5 mins (Table 5)
[19] = photoisomerisation ex situ, 2.0 mins (Table 5)
[20] = photoisomerisation ex situ, 3.0 mins (Table 5)
[21] = photoisomerisation ex situ, 4.0 mins (Table 5)
[22] = photoisomerisation ex situ, 5.0 mins (Table 5)
[23] = photoisomerisation ex situ, 7.5 mins (Table 5)
[24] = photoisomerisation ex situ, 10.0 mins (Table 5)
[25] = photoisomerisation ex situ, 12.5 mins (Table 5)
[26] = photoisomerisation ex situ, 15.0 mins (Table 5)
[27] = photoisomerisation ex situ, 17.5 mins (Table 5)
[28] = photoisomerisation ex situ, 20.0 mins (Table 5)

COc1ccc(/C=C/c2cc(OC)c(OC)c(OC)c2)cc1O [trans-CA-4, trans-combretastatin A-4]
IC50 (K562; 0 h): 4000 nM | IC50 (K562; 0.5 min): 310 nM | IC50 (K562; 1 min): 530 nM | IC50 (K562; 0.025 h): 50 nM | IC50 (K562; 2 min): 20 nM | IC50 (K562; 0.05 h): 12 nM | IC50 (K562; 4 min): 9 nM | IC50 (K562; 5 min): 10 nM | IC50 (K562; 0.125 h): 3 nM | IC50 (K562; 10 min): 6 nM | IC50 (K562; 12.5 min): 4 nM | IC50 (K562; 0.25 h): 1 nM | IC50 (K562; 17.5 min): 3 nM | IC50 (K562; 20 min): 2 nM | % cis-stilbene [1, 3]: 0% | % phenanthrene [1, 3]: 0% | % trans-stilbene [1, 3]: 100% | % cis-stilbene [1, 4]: 0% | % phenanthrene [1, 4]: 0% | % trans-stilbene [1, 4]: 100% | % cis-stilbene [1, 5]: 0% | % phenanthrene [1, 5]: 0% | % trans-stilbene [1, 5]: 100% | % cis-stilbene [1, 6]: 13% | % phenanthrene [1, 6]: 0% | % trans-stilbene [1, 6]: 87% | % cis-stilbene [1, 7]: 31% | % phenanthrene [1, 7]: 0% | % trans-stilbene [1, 7]: 69% | % cis-stilbene [1, 8]: 45% | % phenanthrene [1, 8]: 0% | % trans-stilbene [1, 8]: 55% | % cis-stilbene [1, 9]: 47% | % phenanthrene [1, 9]: 0% | % trans-stilbene [1, 9]: 53% | % cis-stilbene [1, 10]: 53% | % phenanthrene [1, 10]: 0% | % trans-stilbene [1, 10]: 44% | % cis-stilbene [1, 11]: 68% | % phenanthrene [1, 11]: 0% | % trans-stilbene [1, 11]: 32% | % cis-stilbene [1, 12]: 71% | % phenanthrene [1, 12]: 0% | % trans-stilbene [1, 12]: 29% | % cis-stilbene [1, 13]: 74% | % phenanthrene [1, 13]: 4% | % trans-stilbene [1, 13]: 22% | % cis-stilbene [1, 14]: 73% | % phenanthrene [1, 14]: 4% | % trans-stilbene [1, 14]: 23% | % cis [1, 15]: 0.3% | % phenanthrene [1, 15]: 0% | % trans [1, 15]: 99.7% | % cis [1, 16]: 2.0% | % phenanthrene [1, 16]: 0% | % trans [1, 16]: 98.0% | % cis [1, 17]: 3.9% | % phenanthrene [1, 17]: 0% | % trans [1, 17]: 96.1% | % cis [1, 18]: 6.3% | % phenanthrene [1, 18]: 0% | % trans [1, 18]: 93.7% | % cis [1, 19]: 7.3% | % phenanthrene [1, 19]: 0% | % trans [1, 19]: 92.7% | % cis [1, 20]: 25.7% | % phenanthrene [1, 20]: 0% | % trans [1, 20]: 74.3% | % cis [1, 21]: 37.3% | % phenanthrene [1, 21]: 0% | % trans [1, 21]: 62.3% | % cis [1, 22]: 47.9% | % phenanthrene [1, 22]: 0% | % trans [1, 22]: 52.1% | % cis [1, 23]: 56.6% | % phenanthrene [1, 23]: 1.4% | % trans [1, 23]: 40.2% | % cis [1, 24]: 63.1% | % phenanthrene [1, 24]: 2.9% | % trans [1, 24]: 34.0% | % cis [1, 25]: 64.4% | % phenanthrene [1, 25]: 3.4% | % trans [1, 25]: 32.2% | % cis [1, 26]: 64.6% | % phenanthrene [1, 26]: 3.7% | % trans [1, 26]: 31.7% | % cis [1, 27]: 65.1% | % phenanthrene [1, 27]: 4.1% | % trans [1, 27]: 30.8% | % cis [1, 28]: 65.7% | % phenanthrene [1, 28]: 3.7% | % trans [1, 28]: 30.6%

COc1ccc(C=Cc2cc(OC)c(OC)c(OC)c2)cc1F [Compound 97-64H]
concentration necessary to inhibit the growth of HUVEC cells in vitro (HUVEC): 0.001 mM | pIC50 (HUVEC; Homo sapiens, HUVEC): 8.62 | Cmax ([2]; mouse, in vivo, po): 1.49 µg/mL | half-life ([2]; mouse, in vivo, po, absorption half life): 15 min | half-life ([2]; mouse, in vivo, po, elimination half life): 32 min | concentration achieved in vivo ([2]; oral): 1490 µg/mL | concentration achieved in vivo (molar) ([2]; oral): 4600 µM
